Values after ≈ are worked out from the molar mass of the structure shown. Where two headings read alike, the source gives them in different places.
Tests used:
[1] = test system: Trypanosoma rhodesiense; assay: In vitro antitrypanosomal screening, semi-automated microtest system; type: cell-based
[2] = test system: DEN-2; assay: microbe, parasite or virus in culture; conditions: SW13, read-out: Concentration required to give 80% plaque reduction
[3] = test system: PICH; assay: microbe, parasite or virus in culture; conditions: Vero, read-out: Concentration required to give 80% plaque reduction
[4] = test system: VEE; assay: microbe, parasite or virus in culture; type: cell-based; conditions: Vero; read-out: Concentration required to give 80% plaque reduction
[5] = test system: YF; assay: microbe, parasite or virus in culture; type: cell-based; conditions: MK2, read-out: Concentration required to give 80% plaque reduction
[6] = test system: RVFV; assay: microbe, parasite or virus in culture; type: cell-based; conditions: Rift Valley fever virus, SW13, read-out: Concentration required to give 80% plaque reduction
[7] = test system: malaria; conditions: A Survey of Antimalarial Drugs, 1941-1945; cited from earlier work
[8] = test system: Plasmodium falciparum; assay: In vitro antimalarial screening, semi-automated microdilution technique; type: cell-based; conditions: column head in nanograms/ml, footnote in μg/ml, read-out: ED50 (out-of-range entries)
From the text: Desjardins, R. E.; Canfield, C. J.; Haynes, J. D.; and Chulay, J. D.: Quantitative Assessment of Antimalarial Activity In Vitro by A Semi-automated Microdilution Technique. Antimicrob. Ag. & Chemother., 16:710-718, 1979.

[9] = 3H-Thymidine, read-out: ED50, 3H-Thymidine (out-of-range entries)

## Nc1ccc(S(=O)(=O)Nc2ncccn2)cc1 [aluminum sulfadiazine]
[1]; [9]
  IC50: > 12.5 µg/mL

## NC(=O)c1ncn([C@@H]2O[C@H](CO)[C@@H](O)[C@H]2O)n1 [Ribavirin]
[2]
  EC80: 100 µg/mL (≈ 409 µM)
[3]
  EC80: 100 µg/mL (≈ 409 µM)
[4]
  EC80: 100 µg/mL (≈ 409 µM)
[5]
  EC80: 50 µg/mL (≈ 205 µM)
[6]
  EC80: 25 µg/mL (≈ 102 µM)

## COc1cnc(NS(=O)(=O)c2ccc(N)cc2)nc1 [sulfameter]
[1]; [9]
  IC50: > 12.5 µg/mL

## Nc1cccc(S(=O)(=O)Nc2ncc(Cl)cn2)c1 [metachloridine, 5-chloro-2-metanilamidopyrimidine]
[7]
  antimalarial activity in screening tests: sufficiently active in screening tests for antimalarial effects
[8]
  IC50: > 12.5 µg/mL
[1]; [9]
  IC50: > 12.5 µg/mL
[1]; 14C-Leucine, read-out: ED50, 14C-Leucine (out-of-range entries)
  IC50: > 12.5 µg/mL

## Nc1ccc(S(=O)(=O)Nc2ncccn2)cc1 [sulfadiazine, 2-sulfanilaminidopyrimidine]
[8]
  IC50: > 12.5 µg/mL
